Source: patent US20230128114A1, “METHODS AND COMPOSITIONS FOR TREATING OR PREVENTING AN INFLAMMATORY CONDITION” (priority 2020, published 2023)
Like-named read-outs stand apart in the source and are kept apart here.

Experiments:
[1] = system: human peripheral blood mononuclear cells (PBMCs) stimulated with bacterial lipopolysaccharide (LPS); assay: Cytokine release from LPS-stimulated human PBMCs (checkerboard, Luminex), Bliss synergy; format: cell-based; conditions: PBMC
Procedure: The anti-inflammatory activity the combination of CBD and hydroxychloroquine was assessed by determining cytokine release from human peripheral blood mononuclear cells (PBMCs) stimulated with bacterial lipopolysaccharide (LPS) using a Luminex based assay. A 96-well microtitre plate-based checkerboard assay with seven concentrations (including the no drug control) of CBD and hydroxychloroquine were assessed in combination was used to determine the drug-drug interaction. Briefly, frozen PMBCs from two independent donors were thawed, diluted in culture medium, seeded into 96-well microtitre plates and incubated at 37° C., 5% CO2 for 1 hour prior to the addition of test compounds. After the addition of the test compounds the cells were returned to the incubator for 1 hour, after which LPS was added to the wells. Plates were incubated at 37° C., 5% CO2 for 24 hours. After 24 hours, cell culture supernatants were removed and analysed for cytokine levels using Luminex methodology according to manufacturers' instructions. All values had the vehicle background subtracted prior to further analysis. Three plates were set up in parallel using the PBMCs from the same donor. Inhibition of cytokine release was determined relative to the no treatment control (i.e., that was stimulated with LPS) and averaged across the three replicates. A cytotoxicity assay using AlmarBlue with the identical plate set up was performed in parallel.
Drug synergy was determined using the Bliss Independence method where the predicted effect of the drug combination is calculated using the equation: […]
Synergy values for each combination of drug concentrations were calculated using the Excess Over Bliss method (the difference between the observed and predicted inhibition) described by, e.g., Liu et al. (2018, Statistics in Biopharmaceutical Research, 10: 112-122, where a value greater than 0 is indicative of synergy and the higher the value the stronger the synergy.

[2] = system: LPS-induced pulmonary inflammation; assay: LPS-induced pulmonary inflammation: lung histopathology lesion score; format: in vivo, C57BL/B6 mice
Procedure: Male C57BL/B6 mice weighing 10-20 g were used. Vehicle and active agents (i.e., CBD and hydroxychloroquine) alone or in combination were administered intraperitoneally (IP) at 1 hour before LPS (˜80 mg/kg) was administered intratracheally. 24 hours after LPS injection, mice were anaesthetized with pentoparbital and 0.5 mL of PBS was administered twice through a tracheal cannula after which approximately 0.6 mL of broncheoalveolar lavage fluid (BALF) was obtained. The BALF was assayed for IL-1β, TNF-α, MCP-1(MCAF) and CXCL-1 by Luminex. ANOVA followed by Dunnett's test was applied for comparison between vehicle and treatment groups. p<0.05 was considered significant.
In a separate test group of animals with pulmonary inflammation induced as detailed above, lungs were harvested at termination (five lobes per lung) and fixed in 10% neutral buffered formalin for histopathology. Samples were sectioned at 4-6 μm and stained with hematoxylin and eosin (H&E) to examine inflammatory lesions as described by Shackleford et al. (2002, Toxicologic Pathology, 30(1): 93-96). Briefly, a score of 0 corresponds to not present, and a score of 5 indicates a severe/high number of lesions. Scores were averaged across lobes for each animal and then across animals for each treatment group.

[3] = system: collagen-induced arthritis; assay: Collagen-induced arthritis; format: in vivo, Lewis rats; set-up: key to Clinical score Day 24, relative reduction / Pannus score, relative reduction / Total histology score, relative reduction: fractional reduction vs vehicle control, sham-baseline subtracted; conditions: CBD 1 mg/kg, HCQ 2.5 mg/kg, alone or combined
Procedure: Female Lewis rats were challenged with porcine type-II collagen with Freund's adjuvant on Day 1 (0.2 mg/0.2 mL/rat) by subcutaneous injection at the base of the tail to induce arthritis. A booster injection at 0.1 mg/0.1 mL/rat) was administered on Day 7. On Day 16, rats were allocated into groups of six based on hind paw volume, with animals allocated into groups to provide a similar distribution of hind paw volumes.
Vehicle and active agents (i.e., CBD and hydroxychloroquine) alone or in combination were administered intraperitoneally (IP) once a day starting from Day 17 to Day 30, i.e., for a total of 14 consecutive days.
Disease was assessed by measuring hind paw volume with plethysmometer and using a qualitative severity score system as outlined in Table 32 on Day 1, 7, 10, 14, 16, 18, 20, 22, 24, 26, 28 and 30.
Post-termination on Day 30, blood was collected from all rats and analysed for levels of the inflammatory cytokines IL-1β, IL-6 and TNF-α by ELISA. Both hind paws were harvested, weighed and formalin-fixed for histopathology. Tissue was assessed to evaluate cartilage and bone destruction by pannus formation and mononuclear cell infiltration in synovial tissues according to the scoring matrices set out in Tables 33 and 34. A total histology score, being the sum of the pannus formation and mononuclear cell infiltration score, was also calculated.
For synergy analysis, data were baseline subtracted using sham treated […] (i.e., no collagen injection), before normalising the values relative to vehicle control. Synergy was calculated using the statistical methods described elsewhere herein.

[4] = system: LPS-induced pulmonary inflammation; assay: LPS-induced pulmonary inflammation: BALF cytokines, synergy analysis; format: in vivo, C57BL/B6 mice; conditions: CBD 1 mg/kg, HCQ 25 mg/kg, alone or combined; observed

`C=C(C)[C@@H]1CCC(C)=C[C@H]1c1c(O)cc(CCCCC)cc1O` [CBD, cannabidiol] gave an inhibition at 5 µg/mL ([1]; Donor 1, CBD 5.00 μg/mL alone, read-out: FIE (fractional inhibitory effect), IL-1α release) of 40%, an inhibition at 5 µg/mL ([1]; Donor 1, CBD 5.00 μg/mL alone, read-out: FIE (fractional inhibitory effect), IL-1β release) of 38% and an inhibition at 5 µg/mL ([1]; Donor 1, CBD 5.00 μg/mL alone, read-out: FIE (fractional inhibitory effect), IL-6 release) of 8%. The inhibition at 5 µg/mL ([1]; Donor 1, CBD 5.00 μg/mL alone, read-out: FIE (fractional inhibitory effect), MIP-1α release) was 12%, the inhibition at 5 µg/mL ([1]; Donor 1, CBD 5.00 μg/mL alone, read-out: FIE (fractional inhibitory effect), TNF-α release) was 5% and the inhibition at 5 µg/mL ([1]; Donor 2, CBD 5.00 μg/mL alone, read-out: FIE (fractional inhibitory effect), IL-1α release) was 28%. For the same molecule, the inhibition at 5 µg/mL ([1]; Donor 2, CBD 5.00 μg/mL alone, read-out: FIE (fractional inhibitory effect), IL-1β release) was 13%, the inhibition at 5 µg/mL ([1]; Donor 2, CBD 5.00 μg/mL alone, read-out: FIE (fractional inhibitory effect), IL-6 release) was 9% and the inhibition at 5 µg/mL ([1]; Donor 2, CBD 5.00 μg/mL alone, read-out: FIE (fractional inhibitory effect), MIP-1α release) was 0%. For the same molecule, the inhibition at 5 µg/mL ([1]; Donor 2, CBD 5.00 μg/mL alone, read-out: FIE (fractional inhibitory effect), TNF-α release) was 7%, the “Relative reduction in lesion score” value ([2]; CBD 1 mg/kg) was 0.18 and the “Relative reduction in lesion score” value ([2]; CBD 10 mg/kg, HCQ 25 mg/kg, alone or combined, pulmonary lesion score) was 0.29. For the same molecule, the “Clinical score Day 24, relative reduction” value ([3]; observed) was 0.21, the “Pannus score, relative reduction” value ([3]; observed) was 0.07 and the “Paw volume Day 24, relative reduction” value ([3]; observed) was 0.04. For the same molecule, the “Total histology score, relative reduction” value ([3]; observed) was 0.11, the “Relative reduction in serum cytokine levels: IL-1β” value ([3]; serum) was 0.31 and the “Relative reduction in serum cytokine levels: IL-6” value ([3]; serum) was 0.50. For the same molecule, the “IL-6, relative inhibition of cytokine release (BALF)” value [4] was 0.15.
